How the values were obtained:
[1] = tested on: rats; conditions: read-across from MP; ref ECHA dissemination portal; cited from earlier work
[2] = in vivo; conditions: for concentration at 1 h / Tmax / AUC(0-t) / Cmax: Wistar, rat, serum; for concentration at 1 h: oral; for Tmax / AUC(0-t) / Cmax: po; for AUC(0-t) / Cmax / AUC0-1 h/AUC0–t / C1h/Cmax / Clast / tlast: parent compound
Method in brief: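 Test item given by oral gavage at 500 and 1000 mg/kg bw to 10 males and 10 females per dose group, following OECD TG 417. Serum parent parabens and the metabolite p-hydroxybenzoic acid were measured by […] (LOQ 10 ng/mL parabens, 130 ng/mL p-hydroxybenzoic acid). Faeces and urine were not analysed.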

[3] = tested on: bacteria; conditions: cited from earlier work
[4] = tested on: Wistar rats; assay: 90-day repeated dose oral toxicity study (OECD TG 408); type: in vivo, rat; conditions: for NOAEL, 90-day repeated-dose toxicity: OECD 408 v 2018, oral gavage
Description: (§1) Healthy and specific pathogen-free male and female (non-pregnant and nulliparous) Wistar Crl: WI(Han) rats were obtained from Charles River Laboratories (Germany). […] Upon arrival at BSL BIOSERVICE, the animals underwent an acclimatisation period of at least 5 days, and they were approximately 15–16 weeks old at the onset of the treatment period.

[5] = tested on: mammalian cells; conditions: cited from earlier work
[6] = tested on: Wistar rats; assay: Extended one-generation reproductive toxicity study (OECD TG 443); type: in vivo, rat; conditions: for NOAEL, EOGRTS: developmental and reproductive toxicity: OECD 443 v 2018, oral gavage
Description: as §1

In the case of `CCCOC(=O)c1ccc(O)cc1` [Propyl paraben, Propyl 4-hydroxybenzoate], the “Genetic toxicity in vivo (rats) classification” value [1] is listed as “Not clastogenic (read-across from MP)”, the concentration at 1 h ([2]; female, 500 mg/kg) is listed as 68 ng/mL and the concentration at 1 h ([2]; female, 1000 mg/kg) is listed as 20.2 ng/mL. The Tmax ([2]; female, 500 mg/kg) was 15 min, the AUC(0-t) ([2]; female, 500 mg/kg, AUC0-1 h) was 291 ng·h/mL and the AUC(0-t) ([2]; female, 500 mg/kg, AUC0–t) was 1120 ng·h/mL. For the same molecule, the Cmax ([2]; female, 500 mg/kg) was 1390 ng/mL, the Tmax ([2]; female, 1000 mg/kg) was 10.2 min and the AUC(0-t) ([2]; female, 1000 mg/kg, AUC0-1 h) was 156 ng·h/mL. The AUC(0-t) ([2]; female, 1000 mg/kg, AUC0–t) was 317 ng·h/mL, the Cmax ([2]; female, 1000 mg/kg) was 940 ng/mL and the concentration at 1 h ([2]; male, 500 mg/kg) was 23 ng/mL. It also gave a concentration at 1 h ([2]; male, 1000 mg/kg) of 62.3 ng/mL, a Tmax ([2]; male, 500 mg/kg) of 10.2 min and an AUC(0-t) ([2]; male, 500 mg/kg, AUC0-1 h) of 94.9 ng·h/mL. For the same molecule, the AUC(0-t) ([2]; male, 500 mg/kg, AUC0–t) was 150 ng·h/mL, the Cmax ([2]; male, 500 mg/kg) was 345 ng/mL and the Tmax ([2]; male, 1000 mg/kg) was 10.2 min. The AUC(0-t) ([2]; male, 1000 mg/kg, AUC0-1 h) was 175 ng·h/mL, the AUC(0-t) ([2]; male, 1000 mg/kg, AUC0–t) was 380 ng·h/mL and the Cmax ([2]; male, 1000 mg/kg) was 735 ng/mL. For the same molecule, the “AUC0-1 h/AUC0–t” value ([2]; 500 mg/kg, female) was 26%, the C1h/Cmax ([2]; 500 mg/kg, female) was 4.9% and the Clast ([2]; 500 mg/kg, female) was 136 ng/mL. For the same molecule, the tlast ([2]; 500 mg/kg, female) was 8.0 h, the “AUC0-1 h/AUC0–t” value ([2]; 500 mg/kg, male) was 63% and the C1h/Cmax ([2]; 500 mg/kg, male) was 6.7%. The Clast ([2]; 500 mg/kg, male) was 13.6 ng/mL, the tlast ([2]; 500 mg/kg, male) was 4.0 h and the “AUC0-1 h/AUC0–t” value ([2]; 1000 mg/kg, female) was 49%. The C1h/Cmax ([2]; 1000 mg/kg, female) was 2.1%, the Clast ([2]; 1000 mg/kg, female) was 11.6 ng/mL and the tlast ([2]; 1000 mg/kg, female) was 8.0 h. For the same molecule, the “AUC0-1 h/AUC0–t” value ([2]; 1000 mg/kg, male) was 46%, the C1h/Cmax ([2]; 1000 mg/kg, male) was 8.5% and the Clast ([2]; 1000 mg/kg, male) was 14.3 ng/mL. The tlast ([2]; 1000 mg/kg, male) was 8.0 h, the “Mutagenicity in bacteria classification” value [3] was “Not mutagenic [c] (OECD 471; 2018)” and the “NOAEL, 90-day repeated-dose toxicity” value [4] was “NOAEL: 1000 (OECD 408; v 2018) mg/kg body weight/day”. The “NOAEL, 90-day repeated-dose toxicity” value ([4]; listed as propyl paraben) was 1000 mg/kg body weight/day, the “Accessory sex organs HP” value ([4]; P0) was “NAE / NAE” and the “Adrenals HP” value ([4]; P0) was “NAE / NAE”. For the same molecule, the Adrenals weight ([4]; P0) was “NAE / NAE”, the Brain weight ([4]; P0) was “NAE / NAE” and the “Cervix HP” value ([4]; P0) was “NAE / NAE”. The “Coagulating gland HP” value ([4]; P0) was “NAE / NAE”, the Coagulating gland weight ([4]; P0) was “NAE / NAE” and the “Epididymis HP” value ([4]; P0) was “NAE / NAE”. For the same molecule, the Epididymis weight ([4]; P0) was “NAE / NAE”, the Liver weight ([4]; P0) was “NAE / NAE” and the “Mammary gland HP; females” value ([4]; P0) was “NAE / NAE”. The “Mammary gland HP; males” value ([4]; P0) was “NAE / NAE”, the Oestrus cyclicity ([4]; P0) was “NAE / NAE” and the “Ovary HP” value ([4]; P0) was “NAE / NAE”. For the same molecule, the Ovary weight ([4]; P0) was “NAE / NAE”, the “Oviduct HP” value ([4]; P0) was “NAE / NAE” and the “Pituitary HP” value ([4]; P0) was “NAE / NAE”. For the same molecule, the Pituitary weight ([4]; P0) was “NAE / NAE”, the “Prostate HP” value ([4]; P0) was “NAE / NAE” and the Prostate weight ([4]; P0) was “NAE / NAE”. For the same molecule, the “Seminal vesicles HP” value ([4]; P0) was “NAE / NAE”, the Seminal vesicles weight ([4]; P0) was “NAE / NAE” and the “Testis HP” value ([4]; P0) was “NAE / NAE”. The Testis weight ([4]; P0) was “NAE / NAE”, the “Thyroid HP” value ([4]; P0) was “NAE / NAE” and the “Thyroid stimulating hormone level” value ([4]; P0) was “NAE / NAE”. For the same molecule, the Thyroid weight ([4]; P0) was “NAE / NAE”, the “Triiodothyronine / thyroxine level” value ([4]; P0) was “NAE / NAE” and the “Uterus HP (with cervix)” value ([4]; P0) was “NAE / NAE”. For the same molecule, the “Uterus weight (with cervix)” value ([4]; P0) was “NAE / NAE”, the “Vagina HP” value ([4]; P0) was “NAE / NAE” and the Vaginal smears ([4]; P0) was “NAE / NAE”. The “Signs of systemic toxicity” value ([4]; sub-chronic (90-day) oral application) was “did not induce any signs of systemic toxicity”, the “Mutagenicity in mammalian cells classification” value [5] was “Not mutagenic [c] (OECD 476; 2012)” and the “Developmental immunotoxicity (DIT)” value ([6]; DIT cohort) was “did not exhibit”. The “Developmental neurotoxicity (DNT)” value ([6]; DNT cohort) was “did not exhibit DNT”, the “NOAEL, EOGRTS: developmental and reproductive toxicity” value [6] was “NOAEL: 1000 (OECD 443; v 2018) mg/kg body weight/day” and the “NOAEL, EOGRTS: developmental and reproductive toxicity” value ([6]; listed as propyl paraben) was 1000 mg/kg body weight/day. For the same molecule, the “Accessory sex organs HP” value ([6]; P0, F1, (F2)) was “NAE / NAE”, the “Adrenals HP” value ([6]; P0, F1, (F2)) was “NAE / NAE” and the Adrenals weight ([6]; P0, F1, (F2)) was “NAE / NAE”. For the same molecule, the “Age at balano-preputial separation” value ([6]; P0, F1, (F2)) was “NAE / NAE”, the “Age at vaginal opening” value ([6]; P0, F1, (F2)) was “NAE / NAE” and the Anogenital distance ([6]; P0, F1, (F2)) was “NAE / NAE”. For the same molecule, the Auditory startle ([6]; P0, F1, (F2)) was “NAE / NAE”, the “Brain HP” value ([6]; P0, F1, (F2)) was “NAE / NAE” and the Brain morphometric evaluation ([6]; P0, F1, (F2)) was “NAE / NAE”. The Brain weight ([6]; P0, F1, (F2)) was “NAE / NAE”, the “Cervix HP” value ([6]; P0, F1, (F2)) was “NAE / NAE” and the “Coagulating gland HP” value ([6]; P0, F1, (F2)) was “NAE / NAE”. The Coagulating gland weight ([6]; P0, F1, (F2)) was “NAE / NAE”, the “Colloid area (thyroid HP)” value ([6]; P0, F1, (F2)) was “NAE / NAE” and the Dystocia ([6]; P0, F1, (F2)) was “NAE / NAE”. For the same molecule, the “Epididymis HP” value ([6]; P0, F1, (F2)) was “NAE / NAE”, the Epididymis weight ([6]; P0, F1, (F2)) was “NAE / NAE” and the Fertility ([6]; P0, F1, (F2)) was “NAE / NAE”. The Foetal development ([6]; P0, F1, (F2)) was “NAE / NAE”, the Functional observation battery ([6]; P0, F1, (F2)) was “NAE [h] / NAE” and the Gestation length ([6]; P0, F1, (F2)) was “NAE / NAE”. For the same molecule, the Litter size ([6]; P0, F1, (F2)) was “NAE / NAE”, the Litter viability ([6]; P0, F1, (F2)) was “NAE / NAE” and the Liver weight ([6]; P0, F1, (F2)) was “NAE / NAE”. For the same molecule, the “Mammary gland HP; females” value ([6]; P0, F1, (F2)) was “NAE / NAE”, the “Mammary gland HP; males” value ([6]; P0, F1, (F2)) was “NAE / NAE” and the Motor activity ([6]; P0, F1, (F2)) was “NAE / NAE”. For the same molecule, the Nipple development ([6]; P0, F1, (F2)) was “NAE / NAE”, the “No. of implantations, corpora lutea” value ([6]; P0, F1, (F2)) was “NAE / NAE” and the “No. of live births” value ([6]; P0, F1, (F2)) was “NAE / NAE”. The “No. of ovarian follicles” value ([6]; P0, F1, (F2)) was “NAE / NAE”, the Oestrus cyclicity ([6]; P0, F1, (F2)) was “NAE / NAE” and the “Offspring: learning & memory” value ([6]; P0, F1, (F2)) was “NAE / NAE”. The “Ovary HP” value ([6]; P0, F1, (F2)) was “NAE / NAE”, the Ovary weight ([6]; P0, F1, (F2)) was “NAE / NAE” and the “Oviduct HP” value ([6]; P0, F1, (F2)) was “NAE / NAE”. For the same molecule, the “Pituitary HP” value ([6]; P0, F1, (F2)) was “NAE / NAE”, the Pituitary weight ([6]; P0, F1, (F2)) was “NAE / NAE” and the Postimplantation loss ([6]; P0, F1, (F2)) was “NAE / NAE”. The “Presence of anomalies (external, visceral, skeletal)” value ([6]; P0, F1, (F2)) was “NAE / NAE”, the “Prostate HP” value ([6]; P0, F1, (F2)) was “NAE / NAE” and the Prostate weight ([6]; P0, F1, (F2)) was “NAE / NAE”. The Pup development ([6]; P0, F1, (F2)) was “NAE / NAE”, the Reproduction ([6]; P0, F1, (F2)) was “NAE / NAE” and the “Seminal vesicles HP” value ([6]; P0, F1, (F2)) was “NAE / NAE”. For the same molecule, the Seminal vesicles weight ([6]; P0, F1, (F2)) was “NAE / NAE”, the Sperm morphology ([6]; P0, F1, (F2)) was “NAE / NAE” and the Sperm motility ([6]; P0, F1, (F2)) was “NAE / NAE”. The Sperm numbers ([6]; P0, F1, (F2)) was “NAE / NAE”, the “Testis HP” value ([6]; P0, F1, (F2)) was “NAE / NAE” and the Testis weight ([6]; P0, F1, (F2)) was “NAE / NAE”. For the same molecule, the “Thyroid HP” value ([6]; P0, F1, (F2)) was “NAE / NAE”, the “Thyroid stimulating hormone level” value ([6]; P0, F1, (F2)) was “NAE / NAE” and the Thyroid weight ([6]; P0, F1, (F2)) was “NAE / NAE”. The Time to mating ([6]; P0, F1, (F2)) was “NAE / NAE”, the “Triiodothyronine / thyroxine level” value ([6]; P0, F1, (F2)) was “NAE / NAE” and the “Uterus HP (with cervix)” value ([6]; P0, F1, (F2)) was “NAE / NAE”. For the same molecule, the “Uterus weight (with cervix)” value ([6]; P0, F1, (F2)) was “NAE / NAE”, the “Vagina HP” value ([6]; P0, F1, (F2)) was “NAE / NAE” and the Vaginal smears ([6]; P0, F1, (F2)) was “NAE / NAE”. For the same molecule, the “Anogenital distance, female pups PND 0” value ([6]; all dose groups, within historical control, assessed as not toxicologically relevant) was “minimal lower absolute and relative anogenital distance”, the Clinical biochemistry parameters ([6]; parental animals, assessed as not toxicologically relevant) was “few marginal but statistically significant differences” and the Thyroid stimulating hormone ([6]; parental females (and F1 males) of high dose group, assessed as not toxicologically relevant) was “slight but statistically significantly higher group mean thyroid stimulating hormone values”. The “Alterations of the parameters addressed in OECD TG 443” value ([6]; up to 1000 mg/kg bw/day) was “no toxicologically relevant alterations” and the “Local reactions after gavage” value ([6]; without toxicological relevance) was “Transient increased salivation”.

— PMC7904550, “Application of grouping and read-across for the evaluation of parabens of different chain lengths with a particular focus on endocrine properties” (Archives of Toxicology, 2021)
